# Laboratory results as given in patent US20250154686A1, “COMPOUND LIBRARY” (CHUGAI SEIYAKU KABUSHIKI KAISHA, priority 2021, published 2025).
# Biological target: T1, Bcl-2 protein (Recombinant Human Bcl-2 Protein) (Homo sapiens, UniProt P10415)
# T1 construct: purchased Novus Biologicals NBP2-34889
# Assay: AS-MS evaluation of binding of the Example 4 mixture library (1200 compounds/well) to Bcl-2, ASMS ratio (%)
# Details: AS-MS, Example 4 mixture library; for ASMS ratio (%) n = 1: Bcl-2, replicate n = 1; for ASMS ratio (%) n = 2: Bcl-2, replicate n = 2
# Method in brief: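 ASMS ratio (%) derived from reverse-phase LC/MS of three samples: Bcl-2 (20 μM) incubation after SEC, protein-free standard without SEC, and protein-free blank after SEC. Compounds were pooled at 1200/well, 20 nM each, incubated 1 h, 23 °C, dark, in Tris-HCl pH 7.4 buffer with Tween-20 and DTT.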
# T1 sequence (P10415 whole entry): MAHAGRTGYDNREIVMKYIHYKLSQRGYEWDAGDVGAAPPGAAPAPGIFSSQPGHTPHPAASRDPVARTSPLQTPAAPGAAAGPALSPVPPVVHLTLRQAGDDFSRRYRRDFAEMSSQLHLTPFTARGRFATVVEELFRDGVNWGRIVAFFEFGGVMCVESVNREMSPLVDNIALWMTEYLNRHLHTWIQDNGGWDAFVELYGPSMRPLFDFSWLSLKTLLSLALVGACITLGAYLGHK
ASMS ratio (%) n = 1 [%],ASMS ratio (%) n = 2 [%],Compound
5.7,−5.1,"CCOc1cccc(-c2cc(CN3CCN(c4ccc(C(=O)NS(=O)(=O)c5ccc(NCCSc6ccccc6)c(C(F)(F)F)c5)cc4)CC3)cc(OC(C)C)c2)c1 [Compound B2R057-01, 4-[4-[[3-(3-Ethoxyphenyl)-5-propan-2-yloxyphenyl]methyl]piperazin-1-yl]-N-[4-(2-phenylsulfanylethylamino)-3-(trifluoromethyl)phenyl]sulfonylbenzamide]"
13.0,4.8,"CCOc1cncc(-c2cc(CN3CCN(c4ccc(C(=O)NS(=O)(=O)c5ccc(NCCSc6ccccc6)c(C(F)(F)F)c5)cc4)CC3)cc(OC(C)C)c2)c1 [Compound B2R058-01, 4-[4-[[3-(5-Ethoxypyridin-3-yl)-5-propan-2-yloxyphenyl]methyl]piperazin-1-yl]-N-[4-(2-phenylsulfanylethylamino)-3-(trifluoromethyl)phenyl]sulfonylbenzamide]"
0.0,0.0,"CCOc1cccc(-c2cc(OC)c(CN3CCN(c4ccc(C(=O)NS(=O)(=O)c5ccc(NCCSc6ccccc6)c(C(F)(F)F)c5)cc4)CC3)c(OC)c2)c1 [Compound B2R059-01, 4-[4-[[4-(3-Ethoxyphenyl)-2,6-dimethoxyphenyl]methyl]piperazin-1-yl]-N-[4-(2-phenylsulfanylethylamino)-3-(trifluoromethyl)phenyl]sulfonylbenzamide]"
3.9,0.0,"CCOc1cncc(-c2cc(OC)c(CN3CCN(c4ccc(C(=O)NS(=O)(=O)c5ccc(NCCSc6ccccc6)c(C(F)(F)F)c5)cc4)CC3)c(OC)c2)c1 [Compound B2R060-01, 4-[4-[[4-(5-Ethoxypyridin-3-yl)-2,6-dimethoxyphenyl]methyl]piperazin-1-yl]-N-[4-(2-phenylsulfanylethylamino)-3-(trifluoromethyl)phenyl]sulfonylbenzamide]"
9.1,−6.0,"CCOc1cccc(-c2cc(CN3CCN(c4ccc(C(=O)NS(=O)(=O)c5ccc(NCCSc6ccccc6)c(C(F)(F)F)c5)cc4)CC3)cc(C(F)(F)F)c2)c1 [Compound B2R061-01, 4-[4-[[3-(3-Ethoxyphenyl)-5-(trifluoromethyl)phenyl]methyl]piperazin-1-yl]-N-[4-(2-phenylsulfanylethylamino)-3-(trifluoromethyl)phenyl]sulfonylbenzamide]"
0.0,0.0,"CCOc1cncc(-c2cc(CN3CCN(c4ccc(C(=O)NS(=O)(=O)c5ccc(NCCSc6ccccc6)c(C(F)(F)F)c5)cc4)CC3)cc(C(F)(F)F)c2)c1 [Compound B2R062-01, 4-[4-[[3-(5-Ethoxypyridin-3-yl)-5-(trifluoromethyl)phenyl]methyl]piperazin-1-yl]-N-[4-(2-phenylsulfanylethylamino)-3-(trifluoromethyl)phenyl]sulfonylbenzamide]"
8.2,4.6,"CCOc1cccc(-c2cc(CN3CCN(c4ccc(C(=O)NS(=O)(=O)c5ccc(NCCSc6ccccc6)c(C(F)(F)F)c5)cc4)CC3)cc(OC(F)(F)F)c2)c1 [Compound B2R063-01, 4-[4-[[3-(3-Ethoxyphenyl)-5-(trifluoromethoxy)phenyl]methyl]piperazin-1-yl]-N-[4-(2-phenylsulfanylethylamino)-3-(trifluoromethyl)phenyl]sulfonylbenzamide]"
4.2,−7.4,"CCOc1cncc(-c2cc(CN3CCN(c4ccc(C(=O)NS(=O)(=O)c5ccc(NCCSc6ccccc6)c(C(F)(F)F)c5)cc4)CC3)cc(OC(F)(F)F)c2)c1 [Compound B2R064-01, 4-[4-[[3-(5-Ethoxypyridin-3-yl)-5-(trifluoromethoxy)phenyl]methyl]piperazin-1-yl]-N-[4-(2-phenylsulfanylethylamino)-3-(trifluoromethyl)phenyl]sulfonylbenzamide]"
3.8,0.3,"CCOc1cccc(-c2ccc(CN3CCN(c4ccc(C(=O)NS(=O)(=O)c5ccc(NCCSc6ccccc6)c(C(F)(F)F)c5)cc4)CC3)c3ccccc23)c1 [Compound B2R065-01, 4-[4-[[4-(3-Ethoxyphenyl)naphthalen-1-yl]methyl]piperazin-1-yl]-N-[4-(2-phenylsulfanylethylamino)-3-(trifluoromethyl)phenyl]sulfonylbenzamide]"
19.8,−10.7,"CCOc1cncc(-c2ccc(CN3CCN(c4ccc(C(=O)NS(=O)(=O)c5ccc(NCCSc6ccccc6)c(C(F)(F)F)c5)cc4)CC3)c3ccccc23)c1 [Compound B2R066-01, 4-[4-[[4-(5-Ethoxypyridin-3-yl)naphthalen-1-yl]methyl]piperazin-1-yl]-N-[4-(2-phenylsulfanylethylamino)-3-(trifluoromethyl)phenyl]sulfonylbenzamide]"
8.0,0.0,"CCOc1cccc(-c2csc(CN3CCN(c4ccc(C(=O)NS(=O)(=O)c5ccc(NCCSc6ccccc6)c(C(F)(F)F)c5)cc4)CC3)c2)c1 [Compound B2R067-01, 4-[4-[[4-(3-Ethoxyphenyl)thiophen-2-yl]methyl]piperazin-1-yl]-N-[4-(2-phenylsulfanylethylamino)-3-(trifluoromethyl)phenyl]sulfonylbenzamide]"
0.0,0.0,"CCOc1cncc(-c2csc(CN3CCN(c4ccc(C(=O)NS(=O)(=O)c5ccc(NCCSc6ccccc6)c(C(F)(F)F)c5)cc4)CC3)c2)c1 [Compound B2R068-01, 4-[4-[[4-(5-Ethoxypyridin-3-yl)thiophen-2-yl]methyl]piperazin-1-yl]-N-[4-(2-phenylsulfanylethylamino)-3-(trifluoromethyl)phenyl]sulfonylbenzamide]"
12.3,−18.5,"CCOc1cccc(C#Cc2ccccc2CN2CCN(c3ccc(C(=O)NS(=O)(=O)c4ccc(NCCSc5ccccc5)c(C(F)(F)F)c4)cc3)CC2)c1 [Compound B2R069-01, 4-[4-[[2-[2-(3-Ethoxyphenyl)ethynyl]phenyl]methyl]piperazin-1-yl]-N-[4-(2-phenylsulfanylethylamino)-3-(trifluoromethyl)phenyl]sulfonylbenzamide]"
14.3,−9.0,CCOc1cccc(-c2ccccc2CN2CCN(c3ccc(C(=O)NS(=O)(=O)c4ccc(NCCSc5ccccc5)c(C(F)(F)F)c4)nn3)CC2)c1 [Compound B2R071-01]
21.4,11.4,CCOc1cncc(-c2ccccc2CN2CCN(c3ccc(C(=O)NS(=O)(=O)c4ccc(NCCSc5ccccc5)c(C(F)(F)F)c4)nn3)CC2)c1 [Compound B2R072-01]
24.0,0.0,"CCOc1cccc(-c2ccc(CN3CCN(c4ccc(C(=O)NS(=O)(=O)c5ccc(NCCSc6ccccc6)c(C(F)(F)F)c5)nn4)CC3)cc2C)c1 [Compound B2R073-01, 6-[4-[[4-(3-Ethoxyphenyl)-3-methylphenyl]methyl]piperazin-1-yl]-N-[4-(2-phenylsulfanylethylamino)-3-(trifluoromethyl)phenyl]sulfonylpyridazine-3-carboxamide]"
